Two compounds from EP0392802A2, “Preparation of urea analogues and their use in bronchial, cerebrovascular and neuronal disorders” (Beecham Group p.l.c., priority 1989, dated 1990) can be followed below.

The subject of the assay is guinea pig tracheal spiral preparations. The experiment in a line: Bronchodilation in vitro; guinea pig tracheal spiral preparations (relaxation of resting tension relative to isoprenaline). Conditions: fall in tension as percentage of total relaxation evoked by 10⁻³M isoprenaline; cumulative dosing 10⁻⁸-2x10⁻⁵M; resting tension 2g; krebs solution at 37°C; read-out: IC₅₀. On the procedure:
Male guinea pigs (300-600g) were stunned by a blow to the head and bled from the carotid artery. The trachea was exposed, dissected free of connective tissue, and transferred to oxygenated krebs solution at 37 °C. Next, spirals (2 per trachea) were prepared by cutting the whole trachea spirally along its longitudinal axis and then dividing this spiral lengthwise. Each preparation was mounted, using silk thread, in a 10ml organ bath filled with krebs solution at 37 °C and bubbled with 5% CO₂ with O₂. The resting tension of the preparations was set at 2g and changes in muscle tension were monitored isometrically by means of a UFI (2oz) force and displacement transducer (Ormed Ltd) connected to a Linseis pen recorder. All preparations were allowed to equilibrate for 60 minutes. During this equilibration period the preparations were washed by upward displacement at 15 minute intervals and, if necessary, the resting tension was readjusted to 2g using a mechanical micromanipulator system.
Once a steady resting tension had been obtained, the preparations were dosed cumulatively with the test compound (10⁻⁸-2x10⁻⁵M), and finally a maximum relaxation achieved by addition of 10⁻³M isoprenaline.
The fall in tension evoked by the test compound was expressed as a percentage of the total relaxation evoked in the presence of 10⁻³M isoprenaline. […]

For the compound `CC(NC(=S)Nc1ccc(F)cc1)C(C)(C)C` (racemic) [Example 3, (±)-N-4-Fluorophenyl-N′-1,2,2-trimethylprop-1-ylthiourea], the IC50 came out at 5.9 µM.

On to `CC(NC(=NC#N)Nc1ccc(C#N)cc1)C(C)(C)C` (racemic) [Example 4, (±)-N˝-Cyano-N-4-cyanophenyl-N′-1,2,2-trimethylprop-1-ylquanidine], for which the IC50 was 3 µM.
